Usually IC50 stands for the concentration that inhibits the measured activity by half.

Sequence of ASK1 (Q99683 whole entry): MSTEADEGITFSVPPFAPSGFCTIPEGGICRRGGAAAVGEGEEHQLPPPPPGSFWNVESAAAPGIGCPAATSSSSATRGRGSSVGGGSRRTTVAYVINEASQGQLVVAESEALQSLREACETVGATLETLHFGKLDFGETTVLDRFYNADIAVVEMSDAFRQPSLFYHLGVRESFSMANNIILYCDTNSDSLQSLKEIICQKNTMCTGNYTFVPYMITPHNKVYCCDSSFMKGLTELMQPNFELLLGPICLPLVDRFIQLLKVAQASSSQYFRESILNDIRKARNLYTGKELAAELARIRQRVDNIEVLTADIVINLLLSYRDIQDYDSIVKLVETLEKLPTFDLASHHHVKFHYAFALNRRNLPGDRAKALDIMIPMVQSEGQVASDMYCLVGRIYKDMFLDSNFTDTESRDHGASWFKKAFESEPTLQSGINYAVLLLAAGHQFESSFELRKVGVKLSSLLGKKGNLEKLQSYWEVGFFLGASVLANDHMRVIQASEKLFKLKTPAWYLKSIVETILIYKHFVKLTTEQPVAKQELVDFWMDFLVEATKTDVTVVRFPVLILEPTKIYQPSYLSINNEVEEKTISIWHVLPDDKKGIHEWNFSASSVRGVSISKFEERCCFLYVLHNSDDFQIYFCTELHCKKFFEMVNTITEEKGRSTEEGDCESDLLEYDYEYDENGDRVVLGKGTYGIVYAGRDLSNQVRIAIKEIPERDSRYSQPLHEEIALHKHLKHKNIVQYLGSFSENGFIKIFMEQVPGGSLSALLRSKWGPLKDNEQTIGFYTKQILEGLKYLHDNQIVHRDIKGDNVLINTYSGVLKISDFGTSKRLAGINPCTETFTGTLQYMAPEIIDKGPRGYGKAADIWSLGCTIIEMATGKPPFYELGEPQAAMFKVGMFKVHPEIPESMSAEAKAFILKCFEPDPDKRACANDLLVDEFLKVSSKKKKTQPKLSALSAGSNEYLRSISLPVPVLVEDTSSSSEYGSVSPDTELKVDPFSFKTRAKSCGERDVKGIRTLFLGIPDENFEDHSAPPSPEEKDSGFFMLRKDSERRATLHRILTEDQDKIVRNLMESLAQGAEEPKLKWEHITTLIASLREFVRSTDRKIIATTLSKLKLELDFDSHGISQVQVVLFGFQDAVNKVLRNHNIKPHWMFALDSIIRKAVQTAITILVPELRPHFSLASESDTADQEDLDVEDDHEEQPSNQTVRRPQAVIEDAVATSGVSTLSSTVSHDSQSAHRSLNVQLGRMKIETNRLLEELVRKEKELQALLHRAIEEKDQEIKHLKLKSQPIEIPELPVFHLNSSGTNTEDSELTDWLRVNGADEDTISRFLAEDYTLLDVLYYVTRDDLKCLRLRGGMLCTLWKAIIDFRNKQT

The assay addresses ASK1 (Homo sapiens (Human), UniProt Q99683). The assay is described as follows: ASK1 kinase inhibition, HTRF KinEASE Assay System (TR-FRET). It counts as biochemical. The settings on record: 5 nM ASK1 kinase, 1 uM STK3 peptide substrate, 100 uM ATP, 3 hours. Here is the method:
The ability (IC50) of compounds to inhibit ASK1 kinase activity was determined by HTRF® KinEASE™ Assay System.
ASK1 was purchased from Thermofisher (Catalogue # PV401.1), ATP was purchased from Sigma (Catalogue # A7699), HTRF® KinEASE™ Assay System was obtained from Cisbio (Bedford, Mass). ½ Area plate was purchased from Perkin Elmer (Catalogue # #6005560). HTRF® KinEASE™-STK is a generic method for measuring serine/threonine kinase activities using a time-resolved fluorescence resonance energy transfer (TR-FRET) immunoassay. The IC50 value for each compound was determined in the presence of compound (various concentration from 0 to 10 μM) and a fixed amount of ATP and peptide substrates. The test compound, luM STK3 peptide substrate, and 5 nM of ASK1 kinase are incubated with kinase reaction buffer containing 50 mM HEPES pH 7.5, 0.01% BRIJ-35, 10 mM MgCl2, and 1 mM EGTA for 30 minutes. 100 uM ATP is added to start kinase reaction and incubated for 3 hours. The STK3-antibody labeled with Eu^3+-Cryptate and 125 nM streptavidin-XL665 are mixed in a single addition with stop reagents provided by the Cisbio kit used to stop the kinase reaction. Fluorescence is detected using an Envision Multilabeled 2014 reader from PerkinElmer. The Fluorescence is measured at 615 nm (Cryptate) and 665 nm (XL665) and a ratio of 665 nm/615 nm is calculated for each well. The resulting TR-FRET is proportional to the phosphorylation level. Staurosporine was used as the positive control. IC50 was determined by XLfit 5.3.
By using above method, the inhibition of ASK1 was tested for the compound of formula (I). IC50 ranges are as follows: A<1 nM; 1 nM<B<10 nM; 10 nM<C<100 nM; 100 nM<D
In general terms: TR-FRET usually uses a lanthanide donor and a delayed reading to cut background.
For `Cc1cc(F)c(C(=O)Nc2cccc(-c3nnnn3C(CO)CO)n2)cc1-n1cnc(C2CC2)c1` [Example 26a], the IC50 was less than 1 nM.

`Cc1cc(F)c(C(=O)Nc2cccc(-n3nnnc3C(C)C)n2)cc1-n1cnc(C2CC2)c1` [Example 1b, 5-(4-cyclopropyl-1H-imidazol-1-yl)-2-fluoro-N-(6-(5-isopropyl-1H-tetrazol-1-yl)pyridin-2-yl)-4-methylbenzamide] displayed an IC50 of 1 to 10 nM.

With `Cc1cc(F)c(C(=O)Nc2cccc(-c3nnnn3[C@H](C)CO)n2)cc1-n1cnc(C2CC2)c1` [Example 7a, (R)-5-(4-cyclopropyl-1H-imidazol-1-yl)-2-fluoro-N-(6-(1-(1-hydroxypropan-2-yl)-1H-tetrazol-5-yl)pyridin-2-yl)-4-methylbenzamide], the IC50 lay in the range of 1 to 10 nM.

In the case of `Cc1cc(F)c(C(=O)Nc2cccc(-c3nnnn3[C@H](C)COC(=O)c3ccccc3)n2)cc1-n1cnc(C2CC2)c1` [Example 25a], the IC50 is greater than 1000 nM.

Consider `CC(=O)NC[C@@H](C)n1nnnc1-c1cccc(NC(=O)c2cc(-n3cnc(C4CC4)c3)c(C)cc2F)n1` [Example 20a], for which the IC50 lay in the range of 10 to 100 nM.

Consider `Cc1cc(F)c(C(=O)Nc2cccc(-c3nnnn3CC(F)F)n2)cc1-n1cnc(C2CC2)c1` [Example 12a], for which the IC50 fell in the range of 1 to 10 nM.

`C[C@H](CO)n1nnnc1-c1cccc(NC(=O)c2cc(-n3cnc(C4CC4)c3)c(C(F)F)cc2F)n1` [Example 32a]: the IC50 fell in the range of 1 to 10 nM.

`Cc1cnc(C(=O)Nc2cccc(-c3nnnn3[C@H](C)CO)n2)cc1-n1cnc(C2CC2)c1` [Example 49a] returned an IC50 of 1 to 10 nM.

The compound `C[C@H](CO)n1nnnc1-c1cccc(NC(=O)c2cc(-n3cnc(C4CC4)c3)c(C(F)F)cn2)n1` [Example 55a] returned an IC50 of 1 to 10 nM.

In turn, `CC(=O)OCC[C@@H](C)n1nnnc1-c1cccc(NC(=O)c2cc(-n3cnc(C4CC4)c3)c(C)cc2F)n1` [Example 23a] came in with an IC50 of 1 to 10 nM.

`Cc1cc(F)c(C(=O)Nc2cccc(-n3ccnc3C(C)C)n2)cc1-n1cnc(C2CC2)c1` [Example 3c, 5-(4-cyclopropyl-1H-imidazol-1-yl)-2-fluoro-N-(6-(2-isopropyl-1H-imidazol-1-yl)pyridin-2-yl)-4-methylbenzamide] showed an IC50 greater than 1000 nM.

In turn, `CC(C)n1nnnc1-c1cccc(NC(=O)c2cc(-n3cnc(C4CC4)c3)c(C(F)F)cc2F)n1` [Example 31a, 5-(4-cyclopropyl-1H-imidazol-1-yl)-4-(difluoromethyl)-2-fluoro-N-(6-(1-isopropyl-1H-tetrazol-5-yl)pyridin-2-yl)benzamide] returned an IC50 of 1 to 10 nM.

`Cc1cnc(C(=O)Nc2cccc(-c3nnnn3C(C)C)n2)cc1-n1cnc(C2CC2)c1` [Example 48a] had an IC50 of 10 to 100 nM.

Regarding `Cc1cc(F)c(C(=O)Nc2cccc(-c3nnnn3[C@@H](C)CO)n2)cc1-n1cnc(C2CC2)c1` [Example 5a, (S)-5-(4-cyclopropyl-1H-imidazol-1-yl)-2-fluoro-N-(6-(1-(1-hydroxypropan-2-yl)-1H-tetrazol-5-yl)pyridin-2-yl)-4-methylbenzamide], the IC50 was 1 to 10 nM.

With `Cc1cc(F)c(C(=O)Nc2cccc(-c3nnnn3C(C)C)n2)cc1-n1cnc(C(C)(C)C)c1` [Example 29a], the IC50 fell in the range of 1 to 10 nM.

The compound `Cc1cc(F)c(C(=O)Nc2cccc(-c3nnnn3[C@H]3CCOC3)n2)cc1-n1cnc(C2CC2)c1` [Example 18a] yielded an IC50 of 1 to 10 nM.

`Cc1cc(F)c(C(=O)Nc2cccc(-c3nnnn3C3CC3)n2)cc1-n1cnc(C2CC2)c1` [Example 2a, 5-(4-cyclopropyl-1H-imidazol-1-yl)-2-fluoro-N-(6-(1-cyclopropyl-1H-tetrazol-5-yl)pyridin-2-yl)-4-methylbenzamid] yielded an IC50 of 1 to 10 nM.

In the case of `Cc1cnc(C(=O)Nc2cccc(-n3nnnc3C(C)C)n2)cc1-n1cnc(C(C)(C)C)c1` [Example 5b], the IC50 is 1 to 10 nM.

`Cc1cc(F)c(C(=O)Nc2cccc(-c3nnnn3C(C)C)c2)cc1-n1cnc(C2CC2)c1` [Example 35a] returned an IC50 of 10 to 100 nM.

Regarding `Cc1cnc(C(=O)Nc2cccc(-c3nnnn3C(C)C)n2)cc1-n1cnc(C(F)(F)F)c1` [Example 50a], the IC50 lay in the range of 1 to 10 nM.

With `COc1cc(C)c(-n2cnc(C3CC3)c2)cc1C(=O)Nc1cccc(-c2nnnn2[C@H](C)CO)n1` [Example 61a], the 50% inhibitory concentration (IC50) lay in the range of 1 to 10 nM.

In turn, `Cc1cc(F)c(C(=O)Nc2cccc(-c3nnnn3[C@H](C)CCO)n2)cc1-n1cnc(C2CC2)c1` [Example 22a] gave an IC50 of 1 to 10 nM.

The compound `Cc1cc(F)c(C(=O)Nc2cccc(-c3nnnn3C(C)C(F)(F)F)n2)cc1-n1cnc(C2CC2)c1` (stereo not shown) [Example 16a] displayed an IC50 of 10 to 100 nM.

`Cc1cnc(C(=O)Nc2cccc(-n3nnnc3C(C)C)n2)cc1-n1cnc(C(F)(F)F)c1` [Example 4b] came in with a 50% inhibitory concentration (IC50) of 10 to 100 nM.

In the case of `CCCC(=O)OC[C@@H](C)n1nnnc1-c1cccc(NC(=O)c2cc(-n3cnc(C4CC4)c3)c(C)cc2F)n1` [Example 24a], the IC50 was in the range of 10 to 100 nM.

`CC(C)n1nnnc1-c1cccc(NC(=O)c2cc(-n3cnc(C4CC4)c3)c(N3CCN(C)CC3)cn2)n1` [Example 47a] registered an IC50 of 1 to 10 nM.

Consider `CC(C)n1nnnc1-c1cccc(NC(=O)c2cc(-n3cnc(C4CC4)c3)c(N3CCCCC3)cn2)n1` [Example 40a], for which the IC50 was 10 to 100 nM.

`CC(C)n1nnnc1-c1nc(NC(=O)c2cc(-n3cnc(C4CC4)c3)c(F)cn2)cs1` [Example 38a] registered an IC50 of 1 to 10 nM.

For `CC(C)n1nnnc1-c1cccc(NC(=O)c2cc(-n3cnc(C4CC4)c3)c(C(F)F)cn2)n1` [Example 54a], the IC50 lay within 1 to 10 nM.

Turning to `Cc1cc(F)c(C(=O)Nc2cccc(-c3nnnn3CC(C)C)n2)cc1-n1cnc(C2CC2)c1` [Example 9a], the IC50 fell in the range of 10 to 100 nM.

`Cc1cc(F)c(C(=O)Nc2cccc(-c3nnnn3[C@H](C)CO)n2)cc1-n1cnc(C(C)(C)C)c1` [Example 30a] returned an IC50 of 1 to 10 nM.

In turn, `C[C@H](CO)n1nnnc1-c1cccc(NC(=O)c2cc(-n3cnc(C4CC4)c3)c(C(F)(F)F)cn2)n1` [Example 58a] returned an IC50 of 1 to 10 nM.

The compound `Cc1cc(F)c(C(=O)Nc2cccc(-c3nnnn3[C@H]3C[C@@H](O)C3)n2)cc1-n1cnc(C2CC2)c1` [Example 21a] came in with an IC50 of 1 to 10 nM.

In turn, `Cc1cc(F)c(C(=O)Nc2cccc(-c3cnnn3C(C)C)n2)cc1-n1cnc(C2CC2)c1` [Example 4c, 5-(4-cyclopropyl-1H-imidazol-1-yl)-2-fluoro-N-(6-(1-isopropyl-1H-1,2,3-triazol-5-yl)pyridin-2-yl)-4-methylbenzamide] displayed an IC50 of 10 to 100 nM.

In turn, `Cc1cc(F)c(C(=O)Nc2cccc(-c3nnnn3[C@@H](C)CF)n2)cc1-n1cnc(C2CC2)c1` [Example 15a] came in with an IC50 of 1 to 10 nM.

Compound `CC(C)n1nnnc1-c1nc(NC(=O)c2cc(-n3cnc(C4CC4)c3)c(C(F)(F)F)cn2)cs1` [Example 59a] registered a half-inhibitory concentration (IC50) of 1 to 10 nM.

`Cc1cc(F)c(C(=O)Nc2cccc(-c3nnnn3[C@H](C)CO)n2)cc1-n1cnc(C(F)(F)F)c1` [Example 28a] had a concentration for half-maximal inhibition (IC50) of 1 to 10 nM.

In the case of `Cc1cc(F)c(C(=O)Nc2cccc(-c3nnnn3C(C)C)n2)cc1-n1cnc(C(F)(F)F)c1` [Example 27a], the IC50 fell in the range of 10 to 100 nM.

For `Cc1cc(F)c(C(=O)Nc2cccc(-c3nnnn3C3(C)CC3)n2)cc1-n1cnc(C2CC2)c1` [Example 3a, 5-(4-cyclopropyl-1H-imidazol-1-yl)-2-fluoro-N-(6-(1-(1-methylcyclo-propyl)-1H-tetrazol-5-yl)pyridin-2-yl)-4-methylbenzamide], the IC50 lay in the range of 1 to 10 nM.

The compound `CC(C)n1nnnc1-c1nc(NC(=O)c2cc(-n3cnc(C4CC4)c3)c(N3CCN(C)CC3)cn2)cs1` [Example 44a] displayed an IC50 of 1 to 10 nM.

`Cc1cnc(C(=O)Nc2cccc(-n3nnnc3C(C)C)n2)cc1-n1cnc(C2CC2)c1` [Example 3b] registered an IC50 of 1 to 10 nM.

On to `CC(C)n1nnnc1-c1nc(NC(=O)c2cc(-n3cnc(C4CC4)c3)c(C(F)F)cn2)cs1` [Example 56a], for which the IC50 was in the range of 1 to 10 nM.

As for `CC(C)n1nnnc1-c1cccc(NC(=O)c2cc(-n3cnc(C4CC4)c3)c(N3CCCC3)cn2)n1` [Example 43a], the IC50 was 1 to 10 nM.

Consider `Cc1cc(F)c(C(=O)Nc2cccc(-c3nnnn3C3CCC3)n2)cc1-n1cnc(C2CC2)c1` [Example 10a], for which the IC50 fell in the range of 1 to 10 nM.

The compound `Cc1cc(F)c(C(=O)Nc2cccc(-c3nnnn3[C@@H]3CCOC3)n2)cc1-n1cnc(C2CC2)c1` [Example 17a] had an IC50 of 1 to 10 nM.

Turning to `CC(C)n1nnnc1-c1cccc(NC(=O)c2cc(-n3cnc(C4CC4)c3)c(F)cn2)n1` [Example 39a], the IC50 lay within 1 to 10 nM.

On to `CC(C)n1nnnc1-c1nc(NC(=O)c2cc(-n3cnc(C4CC4)c3)c(N3CCOCC3)cn2)cs1` [Example 45a], for which the half-inhibitory concentration (IC50) was in the range of 1 to 10 nM.

As to `Cc1cnc(C(=O)Nc2cccc(-c3nnnn3[C@H](C)CO)n2)cc1-n1cnc(C(F)(F)F)c1` [Example 51a], the IC50 is 1 to 10 nM.

Compound `Cc1cc(F)c(C(=O)Nc2ccnc(-c3nnnn3C(C)C)n2)cc1-n1cnc(C2CC2)c1` [Example 34a] had a 50% inhibitory concentration (IC50) of 10 to 100 nM.
